# From ChEMBL document CHEMBL4813985, “Lead optimization generates selenium-containing miconazole CYP51 inhibitors with improved pharmacological profile for the treatment of fungal infections” (Eur J Med Chem, 2021)
# Active and inactive are the calls of the source. The rule behind the calls is not given here.
# Key:
# Candida albicans [1] = assay: Antifungal activity against Candida albicans CPCC400616 measured after 24 hrs by broth microdilution assay; type: functional
# Candida albicans [2] = assay: Antifungal activity against Candida albicans ATCC SC5314 measured after 24 hrs by broth microdilution assay; type: functional
# [Candida] zeylanoides = Antifungal activity against Candida zeylanoides CMGCC2.3739 measured after 24 hrs by broth microdilution assay; type: functional; conditions: Dujonia zeylanoides
# Cryptococcus neoformans = assay: Antifungal activity against Cryptococcus neoformans CMGCC2.3161 measured after 72 hrs by broth microdilution assay; type: functional
# Pichia kudriavzevii = assay: Antifungal activity against Candida krusei AS2.1045 measured after 24 hrs by broth microdilution assay; type: functional
# Nakaseomyces glabratus = assay: Antifungal activity against Candida glabrata measured after 24 hrs by broth microdilution assay; type: functional
# Candida parapsilosis = assay: Antifungal activity against Candida parapsilosis ATCC 22019 measured after 24 hrs by broth microdilution assay; type: functional; conditions: Lodderomyces parapsilosis
# Aspergillus fumigatus = assay: Antifungal activity against Aspergillus fumigatus CMGCC3.7795 measured after 72 hrs by broth microdilution assay; type: functional
# Candida albicans [3] = assay: Antifungal activity against fluconazole-resistant Candida albicans CaR assessed as inhibition of microbial growth after 24 hrs by broth microdilution method; type: functional
# Candida albicans [4] = assay: Antifungal activity against fluconazole-resistant Candida albicans 17# assessed as inhibition of microbial growth after 24 hrs by broth microdilution method; type: functional
# Candida albicans [5] = assay: Antifungal activity against fluconazole-resistant Candida albicans 632 assessed as inhibition of microbial growth after 24 hrs by broth microdilution method; type: functional
# Candida albicans [6] = assay: Antifungal activity against fluconazole-resistant Candida albicans 901 assessed as inhibition of microbial growth after 24 hrs by broth microdilution method; type: functional
# Candida albicans [7] = assay: Antifungal activity against fluconazole-resistant Candida albicans 904 assessed as inhibition of microbial growth after 24 hrs by broth microdilution method; type: functional
# [8] = target: T1, Lanosterol 14-alpha demethylase (Candida albicans (strain SC5314 / ATCC MYA-2876) (Yeast), UniProt P10613); assay: Inhibition of CYP51 in Candida albicans ATCC SC5314 assessed as ergosterol level at 0.03125 ug/ml after 16 hrs by GC-MS analysis (reference value: 98.3%); set-up: scale not given: the % may be the effect or the level left; conditions: candida albicans sc5314, 16 h, at 0.03125 µg/mL
# T1 sequence (P10613 whole entry): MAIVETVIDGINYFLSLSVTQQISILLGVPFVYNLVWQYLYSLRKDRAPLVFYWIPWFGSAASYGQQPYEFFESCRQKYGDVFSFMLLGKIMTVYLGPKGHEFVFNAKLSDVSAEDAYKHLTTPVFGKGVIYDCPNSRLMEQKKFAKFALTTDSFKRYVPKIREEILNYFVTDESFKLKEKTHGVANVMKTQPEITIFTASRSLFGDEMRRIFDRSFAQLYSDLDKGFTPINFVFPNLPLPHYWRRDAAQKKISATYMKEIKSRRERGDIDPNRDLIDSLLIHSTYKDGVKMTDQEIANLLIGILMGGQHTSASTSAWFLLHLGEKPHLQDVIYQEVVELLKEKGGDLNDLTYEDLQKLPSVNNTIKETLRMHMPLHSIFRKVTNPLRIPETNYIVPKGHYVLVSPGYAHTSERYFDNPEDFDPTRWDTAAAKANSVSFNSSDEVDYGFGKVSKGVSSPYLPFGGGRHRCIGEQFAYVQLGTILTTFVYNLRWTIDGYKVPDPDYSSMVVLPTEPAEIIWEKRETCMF
# [9] = target: T1, Lanosterol 14-alpha demethylase; assay: Inhibition of CYP51 in Candida albicans ATCC SC5314 assessed as ergosterol level at […] ug/ml after 16 hrs by GC-MS analysis (reference value: 98.3%); set-up: scale not given: the % may be the effect or the level left; conditions: candida albicans sc5314, 16 h, dose 0.125 µg/ml
# [10] = target: T1, Lanosterol 14-alpha demethylase; assay: Inhibition of CYP51 in Candida albicans ATCC SC5314 assessed as ergosterol level at 0.5 ug/ml after 16 hrs by GC-MS analysis (reference value: 98.3%); set-up: scale not given: the % may be the effect or the level left; conditions: candida albicans sc5314, 16 h, at 0.5 µg/mL
# [11] = target: T1, Lanosterol 14-alpha demethylase; assay: Inhibition of CYP51 in Candida albicans ATCC SC5314 assessed as ergosterol level at 2 ug/ml after 16 hrs by GC-MS analysis (reference value: 98.3%); set-up: scale not given: the % may be the effect or the level left; conditions: candida albicans sc5314, 16 h, at 2 µg/mL
# [12] = target: T1, Lanosterol 14-alpha demethylase; assay: Inhibition of CYP51 in Candida albicans ATCC SC5314 assessed as ergosterol level at 8 ug/ml after 16 hrs by GC-MS analysis (reference value: 98.3%); set-up: scale not given: the % may be the effect or the level left; conditions: candida albicans sc5314, 16 h, at 8 µg/mL
# [13] = target: T1, Lanosterol 14-alpha demethylase; assay: Inhibition of CYP51 in Candida albicans ATCC SC5314 assessed as Obtusifoliol level at 0.03125 ug/ml after 16 hrs by GC-MS analysis (reference value: 0%); set-up: scale not given: the % may be the effect or the level left; conditions: candida albicans sc5314, 16 h, at 0.03125 µg/mL
# [14] = target: T1, Lanosterol 14-alpha demethylase; assay: Inhibition of CYP51 in Candida albicans ATCC SC5314 assessed as Obtusifoliol level at […] ug/ml after 16 hrs by GC-MS analysis (reference value: 0%); set-up: scale not given: the % may be the effect or the level left; conditions: candida albicans sc5314, 16 h, dose 0.125 µg/ml
# [15] = target: T1, Lanosterol 14-alpha demethylase; assay: Inhibition of CYP51 in Candida albicans ATCC SC5314 assessed as Obtusifoliol level at 0.5 ug/ml after 16 hrs by GC-MS analysis (reference value: 0%); set-up: scale not given: the % may be the effect or the level left; conditions: candida albicans sc5314, 16 h, at 0.5 µg/mL
# [16] = target: T1, Lanosterol 14-alpha demethylase; assay: Inhibition of CYP51 in Candida albicans ATCC SC5314 assessed as Obtusifoliol level at 2 ug/ml after 16 hrs by GC-MS analysis (reference value: 0%); set-up: scale not given: the % may be the effect or the level left; conditions: candida albicans sc5314, 16 h, at 2 µg/mL
# [17] = target: T1, Lanosterol 14-alpha demethylase; assay: Inhibition of CYP51 in Candida albicans ATCC SC5314 assessed as Obtusifoliol level at 8 ug/ml after 16 hrs by GC-MS analysis (reference value: 0%); set-up: scale not given: the % may be the effect or the level left; conditions: candida albicans sc5314, 16 h, at 8 µg/mL
# [18] = target: T1, Lanosterol 14-alpha demethylase; assay: Inhibition of CYP51 in Candida albicans ATCC SC5314 assessed as lanosterol level at 0.03125 ug/ml after 16 hrs by GC-MS analysis (reference value: 1.7%); set-up: scale not given: the % may be the effect or the level left; conditions: candida albicans sc5314, 16 h, at 0.03125 µg/mL
# [19] = target: T1, Lanosterol 14-alpha demethylase; assay: Inhibition of CYP51 in Candida albicans ATCC SC5314 assessed as lanosterol level at […] ug/ml after 16 hrs by GC-MS analysis (reference value: 1.7%); set-up: scale not given: the % may be the effect or the level left; conditions: candida albicans sc5314, 16 h, dose 0.125 µg/ml
# [20] = target: T1, Lanosterol 14-alpha demethylase; assay: Inhibition of CYP51 in Candida albicans ATCC SC5314 assessed as lanosterol level at 0.5 ug/ml after 16 hrs by GC-MS analysis (reference value: 1.7%); set-up: scale not given: the % may be the effect or the level left; conditions: candida albicans sc5314, 16 h, at 0.5 µg/mL
# [21] = target: T1, Lanosterol 14-alpha demethylase; assay: Inhibition of CYP51 in Candida albicans ATCC SC5314 assessed as lanosterol level at 2 ug/ml after 16 hrs by GC-MS analysis (reference value: 1.7%); set-up: scale not given: the % may be the effect or the level left; conditions: candida albicans sc5314, 16 h, at 2 µg/mL
# [22] = target: T1, Lanosterol 14-alpha demethylase; assay: Inhibition of CYP51 in Candida albicans ATCC SC5314 assessed as lanosterol level at 8 ug/ml after 16 hrs by GC-MS analysis (reference value: 1.7%); set-up: scale not given: the % may be the effect or the level left; conditions: candida albicans sc5314, 16 h, at 8 µg/mL
# [23] = target: T1, Lanosterol 14-alpha demethylase; assay: Inhibition of CYP51 in Candida albicans ATCC SC5314 assessed as Eburicol level at 0.03125 ug/ml after 16 hrs by GC-MS analysis (reference value: 0%); set-up: scale not given: the % may be the effect or the level left; conditions: candida albicans sc5314, 16 h, at 0.03125 µg/mL
# [24] = target: T1, Lanosterol 14-alpha demethylase; assay: Inhibition of CYP51 in Candida albicans ATCC SC5314 assessed as Eburicol level at […] ug/ml after 16 hrs by GC-MS analysis (reference value: 0%); set-up: scale not given: the % may be the effect or the level left; conditions: candida albicans sc5314, 16 h, dose 0.125 µg/ml
# [25] = target: T1, Lanosterol 14-alpha demethylase; assay: Inhibition of CYP51 in Candida albicans ATCC SC5314 assessed as Eburicol level at 0.5 ug/ml after 16 hrs by GC-MS analysis (reference value: 0%); set-up: scale not given: the % may be the effect or the level left; conditions: candida albicans sc5314, 16 h, at 0.5 µg/mL
# [26] = target: T1, Lanosterol 14-alpha demethylase; assay: Inhibition of CYP51 in Candida albicans ATCC SC5314 assessed as Eburicol level at 2 ug/ml after 16 hrs by GC-MS analysis (reference value: 0%); set-up: scale not given: the % may be the effect or the level left; conditions: candida albicans sc5314, 16 h, at 2 µg/mL
# [27] = target: T1, Lanosterol 14-alpha demethylase; assay: Inhibition of CYP51 in Candida albicans ATCC SC5314 assessed as Eburicol level at 8 ug/ml after 16 hrs by GC-MS analysis (reference value: 0%); set-up: scale not given: the % may be the effect or the level left; conditions: candida albicans sc5314, 16 h, at 8 µg/mL
# Candida albicans [28] = assay: Anti-biofilm activity in Candida albicans CPCC400616 assessed as inhibition of biofilm formation incubated for 24 hrs with 24 hrs precultured fungal suspension by XTT assay; type: functional
# Candida albicans [29] = assay: Antifungal activity against Candida albicans ATCC SC5314 infected in mouse model of candidiasis assessed as reduction in kidney fungal burden at 0.6 mg/kg/day, ip dosed at 2 hrs post infection and dosed for 4 days; type: functional, organism-based; conditions: time 4.0 day
smiles,measurement,setting,value
OC(Cn1cncn1)(Cn1cncn1)c1ccc(F)cc1F [FLUCONAZOLE],MIC,Candida albicans [1],4 mg/L
same,MIC,Candida albicans [2],1 mg/L
same,MIC,[Candida] zeylanoides,4 mg/L
same,MIC,Cryptococcus neoformans,4 mg/L
same,MIC,Pichia kudriavzevii,32 mg/L
same,MIC,Nakaseomyces glabratus,32 mg/L
same,MIC,Candida parapsilosis,4 mg/L
same,MIC,Aspergillus fumigatus,> 128 mg/L
same,MIC,Candida albicans [3],> 128 mg/L
same,MIC,Candida albicans [4],128 mg/L
same,MIC,Candida albicans [5],> 128 mg/L
same,MIC,Candida albicans [6],> 128 mg/L
same,MIC,Candida albicans [7],> 128 mg/L
same,Activity,[8],86.34%
same,Activity,[9],80.8%
same,Activity,[10],78.9%
same,Activity,[11],19.8%
same,Activity,[12],4.2%
same,Activity,[13],1%
same,Activity,[14],1.6%
same,Activity,[15],2.9%
same,Activity,[16],9.5%
same,Activity,[17],11.4%
same,Activity,[18],9.8%
same,Activity,[19],12.4%
same,Activity,[20],11.6%
same,Activity,[21],7.2%
same,Activity,[22],14.1%
same,Activity,[23],2.9%
same,Activity,[24],5.3%
same,Activity,[25],6.7%
same,Activity,[26],63.5%
same,Activity,[27],70.3%
same,MIC,Candida albicans [28],> 1020 mg/L
same,Activity,Candida albicans [29],Active
